Assay results from ChEMBL document CHEMBL3045429, “Exploration of antimicrobial potential of pyrazolo[3,4-b]pyridine scaffold bearing benzenesulfonamide and trifluoromethyl moieties” (2013).
In brackets after ≈: the same amount, converted by molar mass. Activity calls are given as the source filed them. The calls are words filed in the database; no cut-off is given here.

Assays:
Saccharomyces cerevisiae [1] = assay: Antifungal activity against Saccharomyces cerevisiae MTCC 170 assessed as growth inhibition after 24 hr by agar well diffusion method; type: functional; details: MTCC 170, 24 h
Escherichia coli = assay: Antibacterial activity against Escherichia coli MTCC 1652 assessed as growth inhibition at 4 mg/mL after 24 hr by agar well diffusion method; type: functional, organism-based
Bacillus subtilis [2] = assay: Antibacterial activity against Bacillus subtilis MTCC 121 assessed as growth inhibition at 4 mg/mL after 24 hr by agar well diffusion method; type: functional; details: for zone of inhibition at 4000 µg/mL: MTCC 121, 24 h, read-out: DIZ
Candida albicans [3] = assay: Antifungal activity against Candida albicans MTCC 227 assessed as growth inhibition at 4 mg/mL after 24 hr by agar well diffusion method; type: functional; details: for zone of inhibition at 4000 µg/mL: MTCC 227, 24 h, read-out: DIZ
Bacillus subtilis [4] = assay: Antibacterial activity against Bacillus subtilis MTCC 121 assessed as growth inhibition after 24 hr by agar well diffusion method; type: functional; details: MTCC 121, 24 h
Saccharomyces cerevisiae [5] = assay: Antifungal activity against Saccharomyces cerevisiae MTCC 170 assessed as growth inhibition at 4 mg/mL after 24 hr by agar well diffusion method; type: functional; details: for zone of inhibition at 4000 µg/mL: MTCC 170, 24 h, read-out: DIZ
Candida albicans [6] = assay: Antifungal activity against Candida albicans MTCC 227 assessed as growth inhibition after 24 hr by agar well diffusion method; type: functional; details: MTCC 227, 24 h
Staphylococcus aureus [7] = assay: Antibacterial activity against Staphylococcus aureus MTCC 96 assessed as growth inhibition after 24 hr by agar well diffusion method; type: functional; details: MTCC 96, 24 h
Staphylococcus aureus [8] = assay: Antibacterial activity against Staphylococcus aureus MTCC 96 assessed as growth inhibition at 4 mg/mL after 24 hr by agar well diffusion method; type: functional; details: for zone of inhibition at 4000 µg/mL: MTCC 96, 24 h, read-out: DIZ

SMILES | MIC (Saccharomyces cerevisiae [1]) [µg/mL] | growth inhibition (GI) (Escherichia coli) | zone of inhibition at 4000 µg/mL (Bacillus subtilis [2]) [mm] | zone of inhibition at 4000 µg/mL (Candida albicans [3]) [mm] | MIC (Bacillus subtilis [4]) [µg/mL] | zone of inhibition at 4000 µg/mL (Saccharomyces cerevisiae [5]) [mm] | MIC (Candida albicans [6]) [µg/mL] | MIC (Staphylococcus aureus [7]) [µg/mL] | zone of inhibition at 4000 µg/mL (Staphylococcus aureus [8]) [mm] | growth inhibition (GI) (Candida albicans [3]) | growth inhibition (GI) (Saccharomyces cerevisiae [5]) | growth inhibition (GI) (Bacillus subtilis [2]) | growth inhibition (GI) (Staphylococcus aureus [8])
Cc1cc(C(F)(F)F)c2c(-c3ccccc3)nn(-c3ccc(S(N)(=O)=O)cc3)c2n1 | 64 (≈ 148 µM) | inactive | 20.3 | 16.3 | 64 (≈ 148 µM) | 15.3 | 64 (≈ 148 µM) | 64 (≈ 148 µM) | 19.3 |  |  |  | 
Cc1ccc(-c2nn(-c3ccc(S(N)(=O)=O)cc3)c3nc(-c4ccc(F)cc4)cc(C(F)(F)F)c23)cc1 |  | inactive | 15.6 |  | 128 (≈ 243 µM) |  |  | > 256 | 13.6 | inactive | inactive |  | 
COc1ccc(-c2cc(C(F)(F)F)c3c(-c4ccc(Cl)cc4)nn(-c4ccc(S(N)(=O)=O)cc4)c3n2)cc1 |  | inactive |  |  |  |  |  |  |  | inactive | inactive | inactive | inactive
Cc1cc(C(F)(F)F)c2c(-c3ccc(Cl)cc3)nn(-c3ccc(S(N)(=O)=O)cc3)c2n1 |  | inactive | 17.6 |  | 128 (≈ 274 µM) |  |  | 64 (≈ 137 µM) | 18.6 | inactive | inactive |  | 
NS(=O)(=O)c1ccc(-n2nc(-c3ccccc3)c3c(C(F)(F)F)cc(-c4ccc(F)cc4)nc32)cc1 | 64 (≈ 125 µM) | inactive | 19.6 | 14.6 | 64 (≈ 125 µM) | 15.3 | 128 (≈ 250 µM) | 128 (≈ 250 µM) | 17.6 |  |  |  | 
Cc1ccc(-c2nn(-c3ccc(S(N)(=O)=O)cc3)c3nc(-c4ccc5ccccc5c4)cc(C(F)(F)F)c23)cc1 | 32 (≈ 57.3 µM) | inactive | 15.6 | 18.3 | 128 (≈ 229 µM) | 15.6 | 32 (≈ 57.3 µM) | 128 (≈ 229 µM) | 15.6 |  |  |  | 
NS(=O)(=O)c1ccc(-n2nc(-c3ccc(Cl)cc3)c3c(C(F)(F)F)cc(C(F)(F)F)nc32)cc1 | 64 (≈ 123 µM) | inactive | 15.6 | 16.3 | 128 (≈ 246 µM) | 14.6 | 64 (≈ 123 µM) | 128 (≈ 246 µM) | 16.3 |  |  |  | 
Cc1ccc(-c2nn(-c3ccc(S(N)(=O)=O)cc3)c3nc(-c4ccc(Cl)cc4)cc(C(F)(F)F)c23)cc1 |  | inactive | 16.3 |  | 128 (≈ 236 µM) |  |  | 128 (≈ 236 µM) | 15.6 | inactive | inactive |  | 
NS(=O)(=O)c1ccc(-n2nc(-c3ccccc3)c3c(C(F)(F)F)cc(-c4ccccc4)nc32)cc1 | 64 (≈ 129 µM) | inactive | 17 | 15.3 | 128 (≈ 259 µM) | 16.3 | 64 (≈ 129 µM) | 64 (≈ 129 µM) | 18.6 |  |  |  | 
Cc1ccc(-c2cc(C(F)(F)F)c3c(-c4ccc(C)cc4)nn(-c4ccc(S(N)(=O)=O)cc4)c3n2)cc1 |  | inactive | 16.3 |  | 128 (≈ 245 µM) |  |  | 128 (≈ 245 µM) | 15.3 | inactive | inactive |  | 
NS(=O)(=O)c1ccc(-n2nc(-c3ccccc3)c3c(C(F)(F)F)cc(C(F)(F)F)nc32)cc1 | 128 (≈ 263 µM) | inactive | 21.6 | 15.6 | 32 (≈ 65.8 µM) | 14.6 | 64 (≈ 132 µM) | 32 (≈ 65.8 µM) | 22.6 |  |  |  | 
Cc1ccc(-c2cc(C(F)(F)F)c3c(-c4ccc(Cl)cc4)nn(-c4ccc(S(N)(=O)=O)cc4)c3n2)cc1 |  | inactive |  |  |  |  |  |  |  | inactive | inactive | inactive | inactive
Cc1ccc(-c2nn(-c3ccc(S(N)(=O)=O)cc3)c3nc(C(F)(F)F)cc(C(F)(F)F)c23)cc1 |  | inactive | 16.6 |  | 128 (≈ 256 µM) |  |  | 128 (≈ 256 µM) | 15.6 | inactive | inactive |  | 
Cc1ccc(-c2cc(C(F)(F)F)c3c(-c4ccccc4)nn(-c4ccc(S(N)(=O)=O)cc4)c3n2)cc1 | 64 (≈ 126 µM) | inactive | 20.3 | 16.3 | 64 (≈ 126 µM) | 15.6 | 64 (≈ 126 µM) | 32 (≈ 62.9 µM) | 21.3 |  |  |  | 
NS(=O)(=O)c1ccc(-n2nc(-c3ccc(Cl)cc3)c3c(C(F)(F)F)cc(-c4ccc(Cl)cc4)nc32)cc1 |  | inactive |  |  |  |  |  |  |  | inactive | inactive | inactive | inactive
NS(=O)(=O)c1ccc(-n2nc(-c3ccc(Cl)cc3)c3c(C(F)(F)F)cc(-c4ccc(Br)cc4)nc32)cc1 |  | inactive |  |  |  |  |  |  |  | inactive | inactive | inactive | inactive
NS(=O)(=O)c1ccc(-n2nc(-c3ccc(Cl)cc3)c3c(C(F)(F)F)cc(-c4ccc(F)cc4)nc32)cc1 |  | inactive |  |  |  |  |  |  |  | inactive | inactive | inactive | inactive
NS(=O)(=O)c1ccc(-n2nc(-c3ccccc3)c3c(C(F)(F)F)cc(-c4ccc5ccccc5c4)nc32)cc1 |  | inactive | 14.6 |  | 256 (≈ 470 µM) |  |  | 256 (≈ 470 µM) | 13.6 | inactive | inactive |  | 
Cc1ccc(-c2nn(-c3ccc(S(N)(=O)=O)cc3)c3nc(C)cc(C(F)(F)F)c23)cc1 |  | inactive | 16.3 |  | 128 (≈ 287 µM) |  |  | 128 (≈ 287 µM) | 15.3 | inactive | inactive |  | 
Cc1ccc(-c2nn(-c3ccc(S(N)(=O)=O)cc3)c3nc(-c4ccccc4)cc(C(F)(F)F)c23)cc1 |  | inactive | 17.6 |  | 128 (≈ 252 µM) |  |  | 64 (≈ 126 µM) | 18.3 | inactive | inactive |  | 
NS(=O)(=O)c1ccc(-n2nc(-c3ccc(Cl)cc3)c3c(C(F)(F)F)cc(-c4ccc5ccccc5c4)nc32)cc1 |  | inactive | 16.3 |  | 128 (≈ 221 µM) |  |  | 128 (≈ 221 µM) | 15.3 | inactive | inactive |  | 
NS(=O)(=O)c1ccc(-n2nc(-c3ccccc3)c3c(C(F)(F)F)cc(-c4ccc(Cl)cc4)nc32)cc1 |  | inactive | 16.3 |  | 128 (≈ 242 µM) |  |  | 128 (≈ 242 µM) | 15 | inactive | inactive |  | 
NS(=O)(=O)c1ccc(-n2nc(-c3ccc(Cl)cc3)c3c(C(F)(F)F)cc(-c4ccccc4)nc32)cc1 |  | inactive |  |  |  |  |  |  |  | inactive | inactive | inactive | inactive
C[C@@H]1[C@H](O)[C@@H](C)/C=C/C=C/C=C/C=C/C=C/C=C/C=C/[C@H](O[C@@H]2O[C@H](C)[C@@H](O)[C@H](N)[C@@H]2O)C[C@@H]2O[C@](O)(C[C@@H](O)C[C@@H](O)[C@H](O)CC[C@@H](O)C[C@@H](O)CC(=O)O[C@H]1C)C[C@H](O)[C@H]2C(=O)O [AMPHOTERICIN B] | 20 (≈ 21.6 µM) |  |  | 16.6 |  | 19.3 | 20 (≈ 21.6 µM) |  |  |  |  |  | 
COc1ccc(-c2cc(C(F)(F)F)c3c(-c4ccc(C)cc4)nn(-c4ccc(S(N)(=O)=O)cc4)c3n2)cc1 |  | inactive | 17.3 |  | 128 (≈ 238 µM) |  |  | 256 (≈ 475 µM) | 14.6 | inactive | inactive |  | 
Cc1ccc(-c2nn(-c3ccc(S(N)(=O)=O)cc3)c3nc(-c4ccc(Br)cc4)cc(C(F)(F)F)c23)cc1 |  | inactive | 15.6 |  | 128 (≈ 218 µM) |  |  | 256 (≈ 436 µM) | 14.3 | inactive | inactive |  | 
